# Data: patent EP1295874A2, “Retroviral protease inhibiting compounds” (Abbott Laboratories, priority 1995, dated 1997)
# Experiments:
# Assay in all cases: microbe, parasite or virus in culture
# Format in all cases: cell-based
# [1] = tested on: HIV Selected In Vitro by the Compound of Example 2B
# [2] = tested on: Ritonavir-Resistant HIV from Patients
# [3] = tested on: Ritonavir-Resistant Mutant HIV Clones
structure (smiles),measurement,setting,value
CC(C)c1nc(CN(C)C(=O)N[C@H](C(=O)N[C@@H](Cc2ccccc2)C[C@H](O)[C@H](Cc2ccccc2)NC(=O)OCc2cncs2)C(C)C)cs1 [Ritonavir],EC50,"[1]; Human immunodeficiency virus 1, NL43, Virus NL4-3",98 nM
same,EC50,"[1]; Human immunodeficiency virus 1, Virus P7",221 nM
same,EC50,"[1]; Human immunodeficiency virus 1, Virus P11",478 nM
same,EC50,"[1]; Human immunodeficiency virus 1, Virus P14",1740 nM
same,EC50,"[1]; Human immunodeficiency virus 1, Virus P17",2090 nM
same,cross-resistance (fold),"[1]; passaged virus P14, P17",18-20 fold
same,EC50,"[2]; Human immunodeficiency virus 1, 24 h, Patient No. 313, Day 1, baseline",12 nM
same,EC50,"[2]; Human immunodeficiency virus 1, 24 h, Patient No. 410, Day 1, baseline",29 nM
same,EC50,"[2]; Human immunodeficiency virus 1, 504 h, Patient No. 104, Day 21, V82A",46 nM
same,EC50,"[2]; Human immunodeficiency virus 1, 672 h, Patient No. 104, Day 28, V82T",67 nM
same,EC50,"[2]; Human immunodeficiency virus 1, Patient No. 104, Day -1, baseline",21 nM
same,EC50,"[2]; Human immunodeficiency virus 1, Patient No. 129, Day 84, M36I, I54V, A71V, V82T",203 nM
same,EC50,"[2]; Human immunodeficiency virus 1, Patient No. 129, Day 140, K20K/R, M36M/I, I54V, A71A/V, V82T",677 nM
same,EC50,"[2]; Human immunodeficiency virus 1, Patient No. 129, Day -1, baseline",24 nM
same,EC50,"[2]; Human immunodeficiency virus 1, Patient No. 131, Day 88, M36I, 154V>I, V82A",163 nM
same,EC50,"[2]; Human immunodeficiency virus 1, Patient No. 131, Day 200, K20K/R, M36I, I54I/V, V82A",731 nM
same,EC50,"[2]; Human immunodeficiency virus 1, Patient No. 131, Day -28, baseline",18 nM
same,EC50,"[2]; Human immunodeficiency virus 1, Patient No. 224, Day 110, L33L/F, V82T/S",79 nM
same,EC50,"[2]; Human immunodeficiency virus 1, Patient No. 224, Day 190, K20K/N/R, L33L/F, M36M/I, I54V/M, V82S",496 nM
same,EC50,"[2]; Human immunodeficiency virus 1, Patient No. 224, Day -6, baseline",29 nM
same,EC50,"[2]; Human immunodeficiency virus 1, Patient No. 235, Day 167, I54I/V, A71V, V82A. L90L/M",66 nM
same,EC50,"[2]; Human immunodeficiency virus 1, Patient No. 235, Day -1, baseline",10 nM
same,EC50,"[2]; Human immunodeficiency virus 1, Patient No. 313, Day 57, M36M/I, V82F",64 nM
same,EC50,"[2]; Human immunodeficiency virus 1, Patient No. 313, Day 85, M36M/I, I54I/V, V82S/F/A/T",274 nM
same,EC50,"[2]; Human immunodeficiency virus 1, Patient No. 410, Day 57, M36M/I, I54I/V, V82A",341 nM
same,EC50,"[2]; Human immunodeficiency virus 1, Patient No. 410, Day 85, M36I, I54V, V82A",545 nM
same,EC50,"[3]; Human immunodeficiency virus 1, HXB2, Virus Clone Wild Type (HXB2), 0% Human Serum",64 nM
same,EC50,"[3]; Human immunodeficiency virus 1, HXB2, Virus Clone Wild Type (HXB2), 50% Human Serum",1050 nM
same,EC50,"[3]; Human immunodeficiency virus 1, Virus Clone E35D, M36I, I54V, A71V, V82T, 0% Human Serum",1170 nM
same,EC50,"[3]; Human immunodeficiency virus 1, Virus Clone E35D, M36I, I54V, A71V, V82T, 50% Human Serum",21900 nM
same,EC50,"[3]; Human immunodeficiency virus 1, Virus Clone G48V, 0% Human Serum",111 nM
same,EC50,"[3]; Human immunodeficiency virus 1, Virus Clone G48V, 50% Human Serum",1710 nM
same,EC50,"[3]; Human immunodeficiency virus 1, Virus Clone I54V, V82T, 0% Human Serum",613 nM
same,EC50,"[3]; Human immunodeficiency virus 1, Virus Clone I54V, V82T, 50% Human Serum",16700 nM
same,EC50,"[3]; Human immunodeficiency virus 1, Virus Clone I84V, 0% Human Serum",141 nM
same,EC50,"[3]; Human immunodeficiency virus 1, Virus Clone I84V, 50% Human Serum",2720 nM
same,EC50,"[3]; Human immunodeficiency virus 1, Virus Clone K20R, E35D, M36I, I54V, A71V, V82T, 0% Human Serum",1420 nM
same,EC50,"[3]; Human immunodeficiency virus 1, Virus Clone K20R, E35D, M36I, I54V, A71V, V82T, 50% Human Serum",16000 nM
same,EC50,"[3]; Human immunodeficiency virus 1, Virus Clone L90M, 0% Human Serum",93 nM
same,EC50,"[3]; Human immunodeficiency virus 1, Virus Clone L90M, 50% Human Serum",2280 nM
same,EC50,"[3]; Human immunodeficiency virus 1, Virus Clone V82A, 0% Human Serum",144 nM
same,EC50,"[3]; Human immunodeficiency virus 1, Virus Clone V82A, 50% Human Serum",4080 nM
same,EC50,"[3]; Human immunodeficiency virus 1, Virus Clone V82F, 0% Human Serum",146 nM
same,EC50,"[3]; Human immunodeficiency virus 1, Virus Clone V82F, 50% Human Serum",3600 nM
same,EC50,"[3]; Human immunodeficiency virus 1, Virus Clone V82S, 0% Human Serum",304 nM
same,EC50,"[3]; Human immunodeficiency virus 1, Virus Clone V82S, 50% Human Serum",9220 nM
same,EC50,"[3]; Human immunodeficiency virus 1, Virus Clone V82T, 0% Human Serum",146 nM
same,EC50,"[3]; Human immunodeficiency virus 1, Virus Clone V82T, 50% Human Serum",5640 nM
same,EC50,"[3]; Human immunodeficiency virus 1, Virus Clone Wild Type (pNL4-3), 0% Human Serum",71 nM
same,EC50,"[3]; Human immunodeficiency virus 1, Virus Clone Wild Type (pNL4-3), 50% Human Serum",1400 nM
